One series deals with Jurkat cells. Briefly: WST-1 cell cytotoxicity assay in Jurkat cells. It is filed as cell-based. Particulars: WST-1, 48 h. As for the experimental part:
(§1) The WST-1 cytotoxicity assay evaluated cytotoxicity in effector cells (Jurkat cells) (Fig. 2A) and target cells (HEK293 cells) (Fig. 2B). The OD value that resulted from WST-1 reagent dye formation strongly correlated with the number of metabolically live cells. To further characterize cytotoxicity tolerance, CC50 (cytotoxic concentration 50%) values were calculated and are shown in Table 1. […] Doses of compounds in the screening assay were based on the CC50 values of each cell line. Thus, screening concentrations of CH-1, -2, -3, -4 and -6 were 0, 10, 20 and 40 µM, respectively, while the concentrations for CH-5 were 0, 0.1, 1 and 10 µM, respectively. To ensure reliable screening, anti-PD-1 neutralizing antibody (Cat No. 71120) was used as a positive control for inhibiting the interaction of PD-1/PD-L1, while HEK293 cells transfected with control plasmid served as the negative control. These groups were treated with increasing concentrations of anti-PD-1 neutralizing antibody (0, 0.1, 1 and 10 µg/mL) and luminescence intensity was determined after treatments.
(§2) Figure 2 In vitro screening of leading compounds. (A) Jurkat cells and (B) HEK293 cells were treated with six leading compounds to test cytotoxicity. Cells were seeded into 96-well plates at a density of 7 × 10^3/well and incubated overnight. The cells were then treated for 48 h with different concentrations (0, 10, 20, 40, and 80 µM) of the six CH compounds. At 48 h, cell cytotoxicity WST-1 assays were performed. The x-axis indicates treatment concentrations, while the y-axis indicates the percentage of cell viability (each absolute absorbance value [abs. 450 nm–630 nm] was normalized with the controls). (C) The capacity of the CH compounds to inhibit the PD-1/PD-L1 interaction was tested using the bioluminescent cell-based assay. Effector cells (growth-arrested reporter Jurkat cells) were preincubated with anti-PD-1 neutralizing antibody (Cat No. 71120), DMSO, or each of the CH compounds. The activity of luciferase was determined as an indicator of cell activation. The graphs present mean ± SD (standard deviation) values from at least three independent experiments. (D) After overnight incubation, KG-1 cells were treated for 48 h with increasing concentrations of the CH compounds (0, 10, 20, 40, or 80 µM). (E) KG-1 cells were incubated with CH compounds prior to sPD-L1-Atto staining. Flow cytometry determined binding of the Ni–NTA-labeled sPD-L1 (PD-L1-Atto) complex to KG-1 cells expressing PD-1. Cell staining (Atto-subset) was blocked in the presence of the CH compounds. The experimental groups are indicated as (a) KG-1/PBS, (b) KG-1/Atto dye, (c) KG-1/sPD-L1/Atto dye, (d) KG-1/sPD-L1/Atto dye/CH-1, (e) KG-1/sPD-L1/Atto dye/CH-2, (f) KG-1/sPD-L1/Atto dye/CH-3, (g) KG-1/sPD-L1/Atto dye/CH-4, (h) KG-1/sPD-L1/Atto dye/CH-5, (i) KG-1/sPD-L1/Atto dye/CH6. (F) The cell staining data from (E) are normalized and quantified as relative MFI values. (G) At 48 h, PD-1 protein (20 µg/well) expression was determined by Western blotting. The bar graphs present the mean ± SD (standard deviation) values from three independent experiments. *p < 0.05, **p < 0.01, ***p < 0.001. TEXT PRINTED IN THE PICTURE: (E) d.: 33.1 % | (E) e.: 38.1 % | (E) f.: 52.9 % | (E) g.: 4.01 % | (E) h.: 38.35 % | (E) i.: 49.35 % DOUBTS OF THE COPYIST ABOUT THIS PICTURE: Panel E: the picture labels the histograms only with the sub-panel letters a.-i.; it prints no compound name or measure beside the percentages, so the letters are used as labels. / Panel E: sub-panels a. (3.52 %), b. (4.59 %) and c. (53.9 %) were left out because they appear to be controls without a test compound. / Panel E, small print: d. 33.1 % (3 or 8), e. 38.1 % (8 or 3), f. 52.9 % (9 or 8), h. 38.35 % (3, 5 and 8 uncertain) and i. 49.35 % (9, 3 and 5 uncertain) are best readings.
(§3) Figure 3 In vitro inhibition by the CH-4 analog of the PD-1/PD-L1 interaction. […]

The target in another series is T1, PD-1/PD-L1 interaction (Homo sapiens, UniProt Q15116).
T1 construct: expressed in transfected cells
T1 sequence (Q15116 25-288): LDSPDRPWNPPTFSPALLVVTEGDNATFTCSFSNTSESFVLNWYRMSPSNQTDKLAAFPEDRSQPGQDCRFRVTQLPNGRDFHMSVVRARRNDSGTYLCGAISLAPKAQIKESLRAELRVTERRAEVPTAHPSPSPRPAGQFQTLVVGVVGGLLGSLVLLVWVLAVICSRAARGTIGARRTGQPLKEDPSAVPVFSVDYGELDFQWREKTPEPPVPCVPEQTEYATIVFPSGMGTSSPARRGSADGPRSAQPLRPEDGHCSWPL
Briefly: Cell-based PD-1/PD-L1 checkpoint assay (bioluminescent NFAT-luciferase, Jurkat effector cells / PD-L1/TCR HEK293 target cells). The note with it: CH compounds 0, 10, 20, 40 µM; CH-4 effect at 10 µM. The text has this:
Protein docking analysis identified six potential SMIs targeting PD-1: CH-1, CH-2, CH-3, CH-4, CH-5, and CH-6. To evaluate their capacity to inhibit the PD-1/PD-L1 interaction, we used a cell-based PD-1/PD-L1 inhibitor screening approach consisting of a bioluminescent cell-based assay containing two main components; genetically manipulated effector cells (growth-arrested reporter Jurkat cells) and engineered PD-L1/TCR-overexpressed HEK293 cells (target cells). In this assay, PD-1-expressed effector cells were genetically manipulated with the nuclear factor of activated T-cells (NFAT)-associated luciferase reporter gene. We used HEK293 cells for transient overexpression of PD-L1 and an engineered TCR activator as target cells. When the two cells were co-cultivated, the PD-1/PD-L1 interaction prevented TCR activation and suppressed NFAT-induced luciferase activity.
The WST-1 cytotoxicity assay evaluated cytotoxicity in effector cells (Jurkat cells) (Fig. 2A) and target cells (HEK293 cells) (Fig. 2B). The OD value that resulted from WST-1 reagent dye formation strongly correlated with the number of metabolically live cells. […] These groups were treated with increasing concentrations of anti-PD-1 neutralizing antibody (0, 0.1, 1 and 10 µg/mL) and luminescence intensity was determined after treatments. […]

In the next series the test system is HEK293 cells. Briefly: WST-1 cell cytotoxicity assay in HEK293 cells. It is filed as cell-based. Particulars: WST-1, 48 h. As for the experimental part:
as §1, §2, §3

The test system of a further series is KG-1 cells. Briefly: WST-1 cell cytotoxicity assay in KG-1 cells. Format: cell-based. Particulars: 10 µM, 48 h. As for the experimental part: as §2
Using the WST-1 assay, CH compound cytotoxicities were quantified at different concentrations in KG-1 cells (Fig. 2D). […] The data indicated an appropriate concentration for testing inhibition of the PD-1/sPD-L1 interaction by flow cytometry. To clarify the inhibitory qualities of CH compounds in sPD-L1/PD-1 interactions, His-tagged sPD-L1 recombinant protein was labeled with Ni–NTA-conjugated fluorescent dye (Atto) and flow cytometry analysis was performed (Fig. 2E). […] When KG-1 cells were treated with increasing concentrations of CH-4, PD-1 expression was unchanged (Fig. 2G).
The WST-1 assay assessed cell cytotoxicity. Briefly, cells were seeded in 96-well plates at a density of […] (100 μL/well) with 10% FBS in the medium and incubated for 48 h, before undergoing a further 1 h of incubation at 37 °C with 10 μL of WST-1 solution added to each well. Cell viability was quantified by colormetric detection using an ELISA plate reader (Beckman Coulter PARADIGM Detection Platform; Beckman Coulter, IL, USA) at absorbance values of 450 nm and 690 nm to generate an optical density proportional to the relative abundance of live cells in the wells.

A further series relates to PD-1 protein. As to the kind of experiment: Western blotting of PD-1 protein expression in KG-1 cells. It is filed as cell-based. Particulars: increasing concentrations, 48 h. As for the experimental part:
(§4) Figure 2 In vitro screening of leading compounds. (A) Jurkat cells and (B) HEK293 cells were treated with six leading compounds to test cytotoxicity. Cells were seeded into 96-well plates at a density of 7 × 10^3/well and incubated overnight. The cells were then treated for 48 h with different concentrations (0, 10, 20, 40, and 80 µM) of the six CH compounds. At 48 h, cell cytotoxicity WST-1 assays were performed. The x-axis indicates treatment concentrations, while the y-axis indicates the percentage of cell viability (each absolute absorbance value [abs. 450 nm–630 nm] was normalized with the controls). […] The activity of luciferase was determined as an indicator of cell activation. […] Flow cytometry determined binding of the Ni–NTA-labeled sPD-L1 (PD-L1-Atto) complex to KG-1 cells expressing PD-1. […] (F) The cell staining data from (E) are normalized and quantified as relative MFI values. (G) At 48 h, PD-1 protein (20 µg/well) expression was determined by Western blotting. […] 49.35 % (9, 3 and 5 uncertain) are best readings.
Figure 3 In vitro inhibition by the CH-4 analog of the PD-1/PD-L1 interaction. […] The x-axis indicates treatment concentrations, while the y-axis indicates the percentage of cell viability (each absolute absorbance value [abs. 450 nm–630 nm] was normalized with the controls). […]

The target in a further series is T2, PD-1/sPD-L1 interaction (Homo sapiens, UniProt Q15116).
T2 construct: endogenous in cells; host or cells: KG-1 cells (ATCC)
T2 sequence (Q15116 25-288): as above
Briefly: Flow cytometry of sPD-L1-Atto binding to KG-1 cells expressing PD-1. Format: cell-based. Particulars: Ni-NTA-labeled sPD-L1. As for the experimental part:
as §4, with “controls). (C) The capacity of the CH compounds to inhibit the PD-1/PD-L1 interaction was tested using the bioluminescent cell-based assay.” for “controls).”
Using the WST-1 assay, CH compound cytotoxicities were quantified at different concentrations in KG-1 cells (Fig. 2D). […]

Series [1] can be described thus: WST-1 cell cytotoxicity assay in Jurkat cells. Format: cell-based. The note with it: human, Jurkat cells, WST-1, 48 h. As for the experimental part: as §1, §2, §3
Series [2] is described as follows: WST-1 cell cytotoxicity assay in HEK293 cells. It is filed as cell-based. Particulars: human, HEK293 cells, WST-1, 48 h. As for the experimental part:
as §1, §2, §3

Where [3] appears, read: mean ± SD, Table 1, read-out: CC50 Jurkat cells.
Where [4] appears, read: read-out: CC50 Jurkat cells (tolerance).
Where [5] appears, read: mean ± SD, Table 1, read-out: CC50 293 cells.
[6] abbreviates: read-out: CC50 HEK293 cells (tolerance).

“Also recorded” adds a separate entry of the source. Where two headings read alike, the source gives them in different places.

On to `O=C(Nc1ccccc1)c1cc2ccccc2oc1=O` [CH-4.9], for which the “cytotoxicity in Jurkat cells” value in the series on Jurkat cells (up to 100 µM, Fig. 3A) is “neither analog showed any evidence of cytotoxicity”. Also, the “inhibitory capacity for the PD-1/PD-L1 interaction (luciferase activity)” value against PD-1/PD-L1 interaction is on record as “failed to inhibit”. In the series with HEK293 cells (Fig. 3A), the “concentration associated with increasing cytotoxicity in HEK293 cells” value is on record as “exceeding 20 µM”.

As for `Cc1ccccc1NC(=O)C(=O)CC(=O)c1sc(Nc2ccccc2[N+](=O)[O-])nc1C` [CH-1], the “cytotoxicity to KG-1 cells” value with KG-1 cells is recorded as “low cytotoxicity”. Besides, the CC50 in the series on Jurkat cells (setting [3]) was 133 ± 5.1 µM; with Jurkat cells (setting [4]) it was over 20 µM; in the series with HEK293 cells (setting [5]), 46.9 ± 10.2 µM; in the series on HEK293 cells (setting [6]) it was over 20 µM.

As to `COc1ccc(N=Nc2ccc3oc(=O)c(C(=O)Nc4ccc(OC)cc4)cc3c2)cc1` [CH-4], in the series on PD-1 protein, the PD-1 protein expression result is given as “unchanged”. In addition, at PD-1/sPD-L1 interaction, the “inhibition of sPD-L1 binding to KG-1 cells (shift in staining/fluorescence intensity)” value is “slight, yet significant, shift in staining intensity; also recorded: significantly decreased the shift in fluorescence intensity”. Also, in the series on KG-1 cells, the “cytotoxicity to KG-1 cells” value was “low cytotoxicity”. Also, the CC50 at 48 h was 30.3 ± 1.3 µM in series [1] (setting [3]), over 20 µM in series [1] (setting [4]), 18.9 ± 1.53 µM in series [2] (setting [5]) and over 20 µM in series [2] (setting [6]). Further, the “inhibitory capacity for the PD-1/PD-L1 interaction (luciferase activity)” value against PD-1/PD-L1 interaction is “potential inhibitory capacity”.

Consider `COc1c(C(=O)Nc2ccc(C3=NCCN3)cc2)cccc1C(=O)Nc1ccc(C2=NCCN2)cc1` [CH-2], for which the “cytotoxicity to KG-1 cells” value with KG-1 cells is “low cytotoxicity”. Moreover, the half-maximal cytotoxic concentration (CC50) was 94.9 ± 1.97 µM in the series with Jurkat cells (setting [3]), over 20 µM in the series on Jurkat cells (setting [4]), 151 ± 32.5 µM in the series on HEK293 cells (setting [5]) and over 20 µM with HEK293 cells (setting [6]).

For the compound `C/C(=N\NC(=O)CCSCCC(=O)N/N=C(\C)c1ccccc1)c1ccccc1` [CH-6], the “cytotoxicity to KG-1 cells” value with KG-1 cells is reported as “low cytotoxicity”. The CC50 in the series with Jurkat cells (setting [3]) is 103.4 ± 0.94 µM; in the series with Jurkat cells (setting [4]), over 20 µM; with HEK293 cells (setting [5]) it was 113 ± 26.1 µM; with HEK293 cells (setting [6]), over 20 µM.

Regarding `O=c1c(/C=C/c2c(O)ccc3ccccc23)nnc2sc(-c3cccc([N+](=O)[O-])c3)nn12` [CH-5], the “cytotoxicity to KG-1 cells” value in the series with KG-1 cells is on record as “sensitized”. The CC50 in the series with Jurkat cells (setting [3]) stood at 10.6 ± 2.67 µM; with HEK293 cells (setting [5]) it was 8.52 ± 1.74 µM.

For the compound `COc1cc(-c2ccc(NC(=O)CSC(N)=O)c(OC)c2)ccc1NC(=O)CSC(N)=O` [CH-3], the “cytotoxicity to KG-1 cells” value in the series on KG-1 cells is “low cytotoxicity”. Further, the cytotoxic concentration (CC50) in the series with Jurkat cells (setting [3]) was 212 ± 46.5 µM; in the series on Jurkat cells (setting [4]), over 20 µM; with HEK293 cells (setting [5]), 78.1 ± 4.95 µM; with HEK293 cells (setting [6]), over 20 µM.

The values are drawn from article PMC8741796, “In vitro characterization of a small molecule PD-1 inhibitor that targets the PD-l/PD-L1 interaction” (Scientific Reports, 2022).
